In PubChem BioAssay (NCI):
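At the GI50, growth is halved. TGI marks complete inhibition of growth.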

Experiments:
Assay in all cases: NCI tumour cell line growth inhibition, 384-well format
[1] = test system: T-47D breast
[2] = test system: A498 renal
[3] = test system: SNB-75 CNS
[4] = test system: HCT-116 colon
[5] = test system: RXF 393 renal
[6] = test system: HCT-15 colon
[7] = test system: NCI-H522 lung
[8] = test system: UACC-257 melanoma
[9] = test system: NCI-H322M lung
[10] = test system: SF-539 CNS
[11] = test system: HOP-92 NSCLC
[12] = test system: SF-295 CNS
[13] = test system: SF-268 CNS
[14] = test system: MDA-MB-435 melanoma
[15] = test system: OVCAR-4 ovarian
[16] = test system: OVCAR-3 ovarian
[17] = test system: MCF7 breast
[18] = test system: SK-OV-3 ovarian
[19] = test system: HT29 colon
[20] = test system: RPMI-8226 leukemia
[21] = test system: U251 glioblastoma
[22] = test system: A549 NSCLC
[23] = test system: NCI/ADR-RES ovarian
[24] = test system: HS 578T breast
[25] = test system: SK-MEL-2 melanoma
[26] = test system: K-562 leukemia
[27] = test system: NCI-H226 lung
[28] = test system: MDA-MB-231 breast
[29] = test system: IGROV1 ovarian
[30] = test system: SK-MEL-28 melanoma
[31] = test system: HCC-2998 colon
[32] = test system: BT-549 breast
[33] = test system: SW-620 colon
[34] = test system: CAKI-1 renal
[35] = test system: PC-3 prostate
[36] = test system: SN12C renal
[37] = test system: KM12 colon
[38] = test system: M14 melanoma
[39] = test system: EKVX NSCLC
[40] = test system: LOX IMVI melanoma
[41] = test system: NCI-H460 NSCLC
[42] = test system: ACHN renal
[43] = test system: SK-MEL-5 melanoma
[44] = test system: 786-0 renal
[45] = test system: HOP-62 NSCLC
[46] = test system: UACC-62 melanoma
[47] = test system: MOLT-4 leukemia
[48] = test system: UO-31 renal
[49] = test system: HL-60(TB) leukemia
[50] = test system: TK-10 renal
[51] = test system: SNB-19 CNS
[52] = test system: DU-145 prostate
[53] = test system: NCI-H23 lung
[54] = test system: MALME-3M melanoma
[55] = test system: COLO 205 colon
[56] = test system: OVCAR-5 ovarian

CO[C@@H](C(=O)N1Cc2[nH]nc(NC(=O)c3ccc(N4CCN(C)CC4)cc3)c2C1)c1ccccc1
GI50 [1]: 9180 nM
TGI [1]: 28000 nM
GI50 [2]: 1230 nM
TGI [2]: 25600 nM
GI50 [3]: 769 nM
TGI [3]: 2090 nM
GI50 [4]: 120 nM
TGI [4]: 25200 nM
GI50 [5]: 334 nM
TGI [5]: 2040 nM
GI50 [6]: 14700 nM
TGI [6]: > 100000 nM
GI50 [7]: 34.6 nM
TGI [7]: 561 nM
GI50 [8]: 13100 nM
TGI [8]: 26400 nM
GI50 [9]: 3170 nM
TGI [9]: 16700 nM
GI50 [10]: 237 nM
TGI [10]: 1420 nM
TGI [11]: 2800 nM
GI50 [12]: 1700 nM
TGI [12]: 54400 nM
GI50 [13]: 1020 nM
TGI [13]: 2690 nM
GI50 [14]: 16900 nM
TGI [14]: 32900 nM
GI50 [15]: 566 nM
TGI [15]: 23900 nM
GI50 [16]: 113 nM
TGI [16]: 2640 nM
GI50 [17]: 37.1 nM
TGI [17]: 13700 nM
GI50 [18]: 899 nM
TGI [18]: 12500 nM
GI50 [19]: 4960 nM
TGI [19]: > 100000 nM
GI50 [20]: 327 nM
TGI [20]: 1460 nM
GI50 [21]: 1710 nM
TGI [21]: 16900 nM
GI50 [22]: 442 nM
TGI [22]: 15500 nM
GI50 [23]: > 100000 nM
TGI [23]: > 100000 nM
GI50 [24]: 1100 nM
TGI [24]: 2440 nM
GI50 [25]: 15500 nM
TGI [25]: 29100 nM
GI50 [26]: 32.6 nM
TGI [26]: 167 nM
GI50 [27]: 623 nM
TGI [27]: 4910 nM
GI50 [28]: 2360 nM
TGI [28]: > 100000 nM
GI50 [29]: 547 nM
TGI [29]: 2790 nM
GI50 [30]: 2670 nM
TGI [30]: 18700 nM
GI50 [31]: 12700 nM
TGI [31]: 30300 nM
GI50 [32]: 270 nM
TGI [32]: 1470 nM
GI50 [33]: 848 nM
TGI [33]: 13000 nM
GI50 [34]: 1210 nM
TGI [34]: 9850 nM
GI50 [35]: 1630 nM
TGI [35]: 48600 nM
GI50 [36]: 737 nM
TGI [36]: 3530 nM
GI50 [37]: 175 nM
TGI [37]: 10900 nM
GI50 [38]: 9890 nM
TGI [38]: 26300 nM
GI50 [39]: 1050 nM
TGI [39]: 15800 nM
GI50 [40]: 330 nM
TGI [40]: 1690 nM
GI50 [41]: 88.5 nM
TGI [41]: 1260 nM
GI50 [42]: 2410 nM
TGI [42]: 18600 nM
GI50 [43]: 11200 nM
TGI [43]: 24600 nM
GI50 [44]: 2530 nM
TGI [44]: 15100 nM
GI50 [45]: 676 nM
TGI [45]: 10500 nM
GI50 [46]: 561 nM
TGI [46]: 20100 nM
GI50 [47]: 18.9 nM
TGI [47]: 44.5 nM
GI50 [48]: 11000 nM
TGI [48]: 25400 nM
GI50 [49]: 46.6 nM
TGI [49]: 1510 nM
GI50 [50]: 1590 nM
TGI [50]: 17800 nM
GI50 [51]: 2290 nM
TGI [51]: > 100000 nM
GI50 [52]: 451 nM
TGI [52]: 24400 nM
GI50 [53]: 822 nM
TGI [53]: 12900 nM
GI50 [54]: 642 nM
TGI [54]: 15200 nM
GI50 [55]: 24.4 nM
TGI [55]: 63.9 nM
GI50 [56]: 1700 nM
TGI [56]: 9220 nM
